This note sets out measurements from patent US9855320B2, “Angiogenin for treatment of glaucoma” (CHUNG-ANG UNIVERSITY INDUSTRY-ACADEMIC COOPERATION …, priority 2011, dated 2018).

Assay [1] deals with nitric oxide (NO) concentration in aqueous humor. The assay can be described thus: NO concentration in aqueous humor after instillation (Griess assay). The assay is classed as in vivo, rat. The note with it: 50 μg/ml, rank among instillation groups. The protocol: Normal rat models were divided into 4 groups, each group consisting of 6 rats, that is, 12 eyes, and at 8 AM and 8 PM, each group was instilled with angiogenin 50 μg/ml, angiogenin fragment 50 μg/ml, and latanoprost 50 μg/ml, and 1, 3, and 6 hours after instillation, 15 to 20 μl of aqueous humor was extracted from two rats, that is, 4 eyes for each group. For the extraction of aqueous humor, first, rats were anesthetized, and then, corneal dissection was performed in a direction from at 9 o'clock outside each eye toward microkeratome, and then, a capillary tube was brought into contact through a dissection wound to absorb aqueous humor, which was then moved to an eppendroff tube and frozen-preserved at a temperature of −70 degrees. Thereafter, nitric oxide (NO) concentration in aqueous humor was measured by Griess assay (nitric oxide colorimetric assay kit, Biovision, USA). The aqueous humor was diluted 10 times and then mixed with the same amount of griess solution and reacted together for 10 minutes. The reaction product was moved onto a well plate and then, absorbance of nitrate, which is a NO formation reactant, was measured by using spectrophotometer at a wavelength of 540 nm and compared with a reference value to quantify the nitrate.
(Nitrite, measured by Griess reagent, commonly stands in for NO production.)

The test system of another assay is normal white rat. In words: Intraocular pressure change due to instillation in normal white rats (day-time and night-time). The assay is classed as in vivo. The protocol: (§1) White rats were grouped as a physiological saline solution instillation group, an angiogenin (recombinant human angiogenin, R&D systems, USA) 50 μg/ml instillation group, an angiogenin fragment (angiogenin 108-122, SEQ ID NO: 1, BACHEM, USA) instillation group, and a latanoprost 50 μg/ml instillation group, and each group consisted of 6 rats, that is, 12 eyes. Instillation test was repeatedly performed on normal rats and glaucoma model rats. Ophthalmic agent was administered at 8 AM and 8 PM in an amount of 4 μl to compare day-time effects and night-time effects, and 1, 3, 6, 9, 12, and 24 hours after the instillation, intraocular pressure was measured.

The test system of another assay is angiogenin. In words: Angiogenin concentration change in human tear after Latanoprost instillation (ELISA array). The assay is classed as in vivo. As to the method: Angiogenin concentration change in tears due to long-, short-term instillation of […] Latanoprost (Xalatan; Pfizer Inc., New York, N.Y., USA) was assayed by using ELISA kit (Custom Cytokine Human Antibody Array, RayBiotech). Short-term tear component change assay was performed as follows: 12 people, that is, 24 eyes were instilled with […] Latanoprost and then, angiogenin concentration in tear was qualitatively assayed before instillation and 6 hours after instillation. Long-term tear component change assay was performed as follows: 10 people, that is, 20 eyes, who were newly diagnosed with glaucoma were instilled with […] Latanoprost instillation for two months once a day, and then, angiogenin concentration in tear was analyzed before and after instillation. […] After washing, the result was reacted in a detection buffer solution provided by the manufacturer for 2 minutes, and then, the membrane was exposed to an X-ray film for 40 seconds, and an image thereof was obtained by using Quantity one software(Bio-Rad Lab., Hercules, Calif., USA), and chemiluminescent assay was performed thereon for qualitativeness.

A further assay deals with glaucoma white rats. In words: Intraocular pressure change due to instillation in glaucoma white rats (day-time and night-time). The assay is classed as in vivo, rat. The note with it: day-time test and night-time test. As to the method:
Male white rats were used to prepare an episcleral venous ablation glaucoma model. The rat was anesthetized and a limbus periphery was divided into four portions, each of which was then subjected to 2 mm dissection at an interval of 90 degrees, and then, two radial conjunctival excisions were performed on upper dissection periphery. […] Episcleral vein is distinguishable because it is located […] than extra ocular muscle, has relatively low fluidity and a relatively large diameter, contains darker blood in vessel, and is connected to peripheral venous plexus. After surgical isolation of vein, the vein was lifted up by using 3 mm-width wooden spatula to be spaced apart from the peripheral tissue, and then, was subjected to electric ablation while being careful for the peripheral tissue not to have any thermal injury or any mechanical injury due to the contact. After the operation, a chloramphenical ophthalmic agent was administered thereto. Intraocular pressure was consecutively measured three or more times by using Tonopen (Solan, Fla., USA), and only reliable intraocular pressure values within 5% or less were recorded. Only used were rats that had higher intraocular pressure than that before the operation by 5 mmHg or more when measured on the first day, the third day, one week and two weeks before and after operation.
Also, steroid-induced glaucoma model was prepared as follows: 1% prednisolone was instilled twice a day in an amount of 4 μl for 30 days, and only rats that had higher intraocular pressure by 5 mmHg or more before operation were used.
as §1

With `CC(C)OC(=O)CCC/C=C\C[C@@H]1[C@@H](CC[C@@H](O)CCc2ccccc2)[C@H](O)C[C@@H]1O` [latanoprost, reference compound], the “NO concentration increase in aqueous humor” value in assay [1] (3 hours after instillation) is reported as “greatest NO concentration increase”. Also, the “time after instillation up to which significant intraocular pressure reduction was maintained” value in the assay with normal white rat (day-time instillation) is recorded as “up to 12 hours”. Besides, the intraocular pressure reduction in the assay with normal white rat (day-time instillation, 50 μg/ml, 3 hours after the instillation) is −2.8±0.4 mmHg. For the same compound, the “expression of angiogenin in tear” value in the assay with angiogenin (human, short-term, 6 hours after instillation of 0.0005% Latanoprost, before instillation 42.2±9.1%) was 62.5±10.2%. In addition, the “long-term angiogenin concentration in tear” value with angiogenin (newly diagnosed glaucoma patients, after two months of instillation once a day, 0.0005% Latanoprost, before instillation 60.5±10.8%) is recorded as 81.2±11.5%.
For “angiogenin fragment: C-terminal fragment of angiogenin, angiogenin 108-122, SEQ ID NO: 1 (BACHEM) (ENGLPVHLDQSIFRR; listed as Homo sapiens)”, the “course of intraocular pressure reduction effects after the first hour (in words)” value with glaucoma white rats (later than one hour after instillation) is “rapidly diminished at the highest speed from among all of the groups”. Further, the “intraocular pressure reduction effects (in words)” value in the assay with glaucoma white rats (one hour after instillation) is on record as “excellent intraocular pressure reduction effects”. The “NO concentration increase in aqueous humor” value in assay [1] (1 hour after the initial instillation, day-time and night-time test) is recorded as “ranked the second”. For the same compound, the “time after instillation up to which significant intraocular pressure reduction was maintained” value in the assay on normal white rat (day-time instillation) is listed as “up to 6 hours”; with normal white rat (night-time instillation), “up to 12 hours”. The “average intraocular pressure reduction” value with normal white rat (day-time instillation, one hour after instillation) is −2.9±0.4 mmHg. In the assay on normal white rat (night-time instillation, 1 hour after the instillation), this compound showed an intraocular pressure reduction of −3.4±0.6 mmHg.
